Read-outs that look alike come from different tables or passages of the source.
How the values were obtained:
UKE-1 cells = assay: UKE-1 cell viability assay (CellTiter Blue); conditions: UKE1, 72 h, read-out: UKE-1 cell growth inhibition IC50
Protocol: Suspension cells were seeded at 20,000 cells per well. […] Cell viability data were analyzed using GraphPad Prism6.

JAK2 = JAK2 (Homo sapiens (Human), UniProt O60674); assay: Radiometric assay of enzymatic JAK2 activity by Reaction Biology Corp.; format: biochemical
JAK2 KD [1] = biological target: T1, JAK2 KD (Homo sapiens (Human), UniProt O60674); assay: Transient expression of JAK2 KD in Expi293F cells, immunoblot densitometry; format: cell-based
Protocol: The construct was expressed using a CMV promoter and contained a Hiss N-terminal affinity tag followed by a TEV cleavage site. Expi293F cells (Invitrogen) were grown, maintained, and treated in shaking culture at 37° C. with 8% CO2 in Expi293 medium (Invitrogen). Recombinant JAK2 was expressed in Expi293F cells using Transporter 5 transfection reagent as described by the manufacturer (PolySciences). One hour after adding the plasmid:transfection complex, varying concentrations of JAK2 inhibitor or transcription enhancer were added. The transfection proceeded for 24 hours before harvest.
Previously, JAK2 KD has been predominantly purified from insect cells; but this process takes several weeks to generate and amplify the baculovirus to produce large enough quantities of purified protein.

JAK2 KD [2] = biological target: T1, JAK2 KD; assay: Differential scanning fluorimetry (DSF) binding studies with purified JAK2 KD
Source text: To assess the suitability of purified JAK2 KD for SAR studies for drug development campaigns, three series of JAK2 inhibitors (FIG. 2A-C) were subjected to binding studies by differential scanning fluorimetry (DSF).

SRC = SRC (Homo sapiens (Human), UniProt P12931); conditions: selectivity; cited from earlier work
[3] = radiometric assay, ± SD from two data sets, read-out: Biochemical inhibition IC50
[4] = read-out: Biochemical inhibition IC50

Chain of JAK2 (O60674 whole entry): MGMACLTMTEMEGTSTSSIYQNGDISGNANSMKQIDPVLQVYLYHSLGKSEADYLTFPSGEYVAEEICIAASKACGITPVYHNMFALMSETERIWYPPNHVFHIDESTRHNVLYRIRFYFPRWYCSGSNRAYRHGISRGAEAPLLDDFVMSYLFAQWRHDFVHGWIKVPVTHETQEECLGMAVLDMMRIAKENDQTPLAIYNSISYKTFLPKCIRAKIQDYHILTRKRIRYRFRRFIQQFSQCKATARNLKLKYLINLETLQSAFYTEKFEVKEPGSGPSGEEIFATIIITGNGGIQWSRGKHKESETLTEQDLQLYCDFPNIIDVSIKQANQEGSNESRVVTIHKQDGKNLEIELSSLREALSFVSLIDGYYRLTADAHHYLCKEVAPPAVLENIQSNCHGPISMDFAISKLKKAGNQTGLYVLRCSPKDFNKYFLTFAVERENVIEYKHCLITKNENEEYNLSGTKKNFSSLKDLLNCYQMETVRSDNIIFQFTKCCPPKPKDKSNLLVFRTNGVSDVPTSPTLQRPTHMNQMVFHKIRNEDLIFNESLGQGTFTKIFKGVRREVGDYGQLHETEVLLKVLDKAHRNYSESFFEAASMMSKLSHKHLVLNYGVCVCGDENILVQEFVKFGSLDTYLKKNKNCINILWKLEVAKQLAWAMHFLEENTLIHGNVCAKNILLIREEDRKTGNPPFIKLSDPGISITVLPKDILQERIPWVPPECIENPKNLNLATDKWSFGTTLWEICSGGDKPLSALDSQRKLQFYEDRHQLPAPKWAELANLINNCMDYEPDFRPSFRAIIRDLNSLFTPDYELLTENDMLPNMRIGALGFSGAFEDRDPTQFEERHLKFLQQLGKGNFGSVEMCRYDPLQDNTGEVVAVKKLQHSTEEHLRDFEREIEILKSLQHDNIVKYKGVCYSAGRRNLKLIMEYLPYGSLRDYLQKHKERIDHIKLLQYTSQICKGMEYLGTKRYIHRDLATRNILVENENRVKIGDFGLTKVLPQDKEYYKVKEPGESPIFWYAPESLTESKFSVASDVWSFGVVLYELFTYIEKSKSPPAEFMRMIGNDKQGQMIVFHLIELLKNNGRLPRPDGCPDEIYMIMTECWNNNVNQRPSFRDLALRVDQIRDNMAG
T1 sequence (O60674 840-1132): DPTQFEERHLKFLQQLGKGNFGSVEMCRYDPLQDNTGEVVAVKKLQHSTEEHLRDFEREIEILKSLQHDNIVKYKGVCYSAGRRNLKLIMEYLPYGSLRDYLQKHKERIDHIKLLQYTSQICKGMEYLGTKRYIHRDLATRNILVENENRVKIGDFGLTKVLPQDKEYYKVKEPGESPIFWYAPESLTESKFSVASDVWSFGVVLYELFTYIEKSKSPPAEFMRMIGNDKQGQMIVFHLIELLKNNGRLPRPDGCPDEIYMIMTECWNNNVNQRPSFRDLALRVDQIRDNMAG
Chain of SRC (P12931 whole entry, species assumed): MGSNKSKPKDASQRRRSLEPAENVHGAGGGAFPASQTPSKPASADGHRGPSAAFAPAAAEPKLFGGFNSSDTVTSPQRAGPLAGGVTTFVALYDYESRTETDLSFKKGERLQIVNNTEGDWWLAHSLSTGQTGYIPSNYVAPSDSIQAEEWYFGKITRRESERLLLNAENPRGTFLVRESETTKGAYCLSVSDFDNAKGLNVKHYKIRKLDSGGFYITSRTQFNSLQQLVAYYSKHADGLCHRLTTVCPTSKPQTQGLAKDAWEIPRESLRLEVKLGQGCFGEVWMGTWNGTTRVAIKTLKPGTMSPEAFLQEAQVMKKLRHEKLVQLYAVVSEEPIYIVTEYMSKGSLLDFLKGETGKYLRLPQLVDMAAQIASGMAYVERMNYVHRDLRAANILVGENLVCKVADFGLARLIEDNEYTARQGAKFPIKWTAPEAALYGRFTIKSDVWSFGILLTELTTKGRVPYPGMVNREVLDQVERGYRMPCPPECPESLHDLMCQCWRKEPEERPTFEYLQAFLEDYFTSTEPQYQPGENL

Row | SMILES | IC50 (UKE-1 cells) [nM] | IC50 (JAK2; [4]) [nM] | further results
1 | Cc1cnc(Nc2ccc(OCCN3CCCC3)cc2)nc1Nc1cccc(S(=O)(=O)NC(C)(C)C)c1 [Fedratinib, reference compound] | 660 ± 60 |  | 
2 | C=CCCn1cc(-c2nc(Nc3ccc(C4CCNCC4)cc3)nc3[nH]ccc23)cn1 [Compound 3, 4-(1-(But-3-en-1-yl)-1H-pyrazol-4-yl)-N-(4-(piperidin-4-yl)phenyl)-7H-pyrrolo[2,3-d]pyrimidin-2-amine] | 620 ± 40 |  | IC50 (JAK2; [3]): 0.26 ± 0.04 nM
3 | Cc1cnc(Nc2ccc(C3CCN(C)CC3)c(F)c2)nc1Nc1ccc(F)c(NS(=O)(=O)C(C)(C)C)c1 [Compound 4, N-(2-Fluoro-5-((2-((3-fluoro-4-(1-methylpiperidin-4-yl)phenyl)amino)-5-methylpyrimidin-4-yl)amino)phenyl)-2-methylpropane-2-sulfonamide] |  |  | IC50 (JAK2; [3]): 6.5 ± 3.5 nM
4 | CCCC(CCC)C(=O)O [valproic acid] |  |  | JAK2 KD expression increase over ruxolitinib alone (JAK2 KD [1]; HDAC inhibitor during expression alongside ruxolitinib): four-fold
5 | Cc1cnc(Nc2ccc(C3CCN(C)CC3)c(F)c2)nc1Nc1ccc2c(c1)N(S(=O)(=O)C(C)(C)C)CC2 [Compound 7, N^4-(1-(tert-Butylsulfonyl)indolin-6-yl)-N^2-(3-fluoro-4-(1-methylpiperidin-4-yl)phenyl)-5-methylpyrimidine-2,4-diamine] | 210 ± 20 | 3.6 ± 1.1 | 
6 | Cc1cnc(Nc2cc(F)c(C3CCN(C)CC3)c(F)c2)nc1Nc1ccc(F)c(NS(=O)(=O)C(C)(C)C)c1 [Compound 5, N-(5-((2-((3,5-Difluoro-4-(1-methylpiperidin-4-yl)phenyl)amino)-5-methylpyrimidin-4-yl)amino)-2-fluorophenyl)-2-methylpropane-2-sulfonamide] | 150 ± 10 |  | IC50 (JAK2; [3]): 8.2 ± 5.7 nM
7 | N#CC[C@H](C1CCCC1)n1cc(-c2nc(Nc3ccc(C4CCNCC4)cc3)nc3[nH]ccc23)cn1 [(R)-1, (R)-3-Cyclopentyl-3-(4-(2-((4-(piperidin-4-yl)phenyl)amino)-7H-pyrrolo[2,3-d]pyrimidin-4-yl)-1H-pyrazol-1-yl)propanenitrile] |  | 0.15 ± 0.03 | IC50 (JAK2): < 0.15 nM
8 | N#CC[C@@H](C1CCCC1)n1cc(-c2nc(Nc3ccc(C4CCNCC4)cc3)nc3[nH]ccc23)cn1 [(S)-1, (S)-3-Cyclopentyl-3-(4-(2-((4-(piperidin-4-yl)phenyl)amino)-7H-pyrrolo[2,3-d]pyrimidin-4-yl)-1H-pyrazol-1-yl)propanenitrile] |  | 0.099 ± 0.02 | 
9 | CCCC(=O)O [butyric acid] |  |  | JAK2 KD expression increase over ruxolitinib alone (JAK2 KD [1]): four-fold
10 | N#CCC(C1CCCC1)n1cc(-c2nc(Nc3ccc(C4CCNCC4)cc3)nc3[nH]ccc23)cn1 (racemic) [(rac)-1] |  |  | Binding potential ΔTm (JAK2 KD [2]): 11.8 ± 0.05 °C
11 | N#CCCn1cc(-c2nc(Nc3ccc(C4CCNCC4)cc3)nc3[nH]ccc23)cn1 [Compound 2, 3-(4-(2-((4-(Piperidin-4-yl)phenyl)amino)-7H-pyrrolo[2,3-d]pyrimidin-4-yl)-1H-pyrazol-1-yl)propanenitrile] | 4500 ± 5900 | 0.13 ± 0.048 | 
12 | N#CC[C@H](C1CCCC1)n1cc(-c2ncnc3[nH]ccc23)cn1 [Ruxolitinib, reference compound] |  |  | Inhibitory activity for JAK2 over SRC (SRC): three orders of magnitudes higher

From patent publication US20240140952A1, “INHIBITORS AND DEGRADERS OF JANUS KINASE 2” (H. LEE MOFFITT CANCER CENTER AND RESEARCH INSTITUTE, INC., priority 2021, published 2024)
